According to ChEMBL document CHEMBL4385604, “Identification of Pyrrolo[2,3- d]pyrimidine-Based Derivatives as Potent and Orally Effective Fms-like Tyrosine Receptor Kinase 3 (FLT3) Inhibitors for Treating Acute Myelogenous Leukemia” (J Med Chem, 2019):

Key:
MOLM-13 [1] = experiment: animal or person; details: Mus musculus, MOLM-13, po, read-out: TGI
Description: Antitumour activity against human MOLM13 cells xenografted in NOD/SCID mouse assessed as tumour growth inibition at 3 mg/kg, po qd for 10 days measured every two days during compound dosing by caliper method relative to control

MOLM-13 [2] = experiment: Induction of apoptosis in human MOLM13 cells assessed as necrotic cells at 1 nM after 48 hrs by Annexin V/propidium iodide staining based flow cytometry (reference value: 0.29%); type: functional
[3] = molecular target: Receptor-type tyrosine-protein kinase FLT3 (Homo sapiens) (UniProt P36888); experiment: Inhibition of FLT3 autophosphorylation in human MV4-11 cells assessed as ratio of phosphorylated FLT3 to beta-actin level at 30 nM after 2 hrs by Western blot analysis relative to control; type: cell-based
MOLM-13 [4] = experiment: Induction of apoptosis in human MOLM13 cells assessed as necrotic cells at 10 nM after 48 hrs by Annexin V/propidium iodide staining based flow cytometry (reference value: 0.29%); type: functional
MOLM-13 [5] = experiment: Cell cycle arrest in human MOLM13 cells assessed as accumulation at G2/M phase at 1 nM after 24 hrs by propidium iodide staining-based flow cytometric analysis (reference value: 13.52%); type: functional
MOLM-13 [6] = experiment: Cell cycle arrest in human MOLM13 cells assessed as accumulation at S phase at 3 nM after 24 hrs by propidium iodide staining-based flow cytometric analysis (reference value: 41.95%); type: functional
MV4-11 [7] = experiment: Cell cycle arrest in human MV4-11 cells assessed as accumulation at G2/M phase at 10 nM after 24 hrs by propidium iodide staining-based flow cytometric analysis (reference value: 21.12%); type: functional
MOLM-13 [8] = experiment: Induction of apoptosis in human MOLM13 cells assessed as late apoptotic cells at 10 uM after 48 hrs by Annexin V/propidium iodide staining based flow cytometry (reference value: 5.52%); type: functional
MOLM-13 [9] = experiment: Cell cycle arrest in human MOLM13 cells assessed as accumulation at G0/G1 phase at 10 nM after 24 hrs by propidium iodide staining-based flow cytometric analysis (reference value: 44.53%); type: functional
MV4-11 [10] = experiment: Antitumour activity against human MV4-11 cells xenografted in po dosed NOD/SCID mouse assessed as tumour growth inhibition administered daily for 14 days; type: functional, organism-based
[11] = molecular target: Receptor-type tyrosine-protein kinase FLT3 (Homo sapiens, UniProt P36888, D835H); experiment: Binding affinity to human partial length FLT3 D835H mutant (V592 to Y969 residues) expressed in Escherichia coli after 1 hr by qPCR analysis
MOLM-13 [12] = experiment: Antitumour activity against human MOLM13 cells xenografted in NOD/SCID mouse assessed as tumour growth inibition at 10 mg/kg, po qd for 10 days measured every two days during compound dosing by caliper method relative to control; type: functional; details: MOLM-13, po, read-out: TGI
[13] = molecular target: T1, Receptor-type tyrosine-protein kinase FLT3 (Homo sapiens, UniProt P36888); experiment: Binding affinity to wild-type human partial length FLT3 (V592 to Y969 residues) expressed in Escherichia coli after 1 hr by qPCR analysis
T1 sequence (P36888 whole entry): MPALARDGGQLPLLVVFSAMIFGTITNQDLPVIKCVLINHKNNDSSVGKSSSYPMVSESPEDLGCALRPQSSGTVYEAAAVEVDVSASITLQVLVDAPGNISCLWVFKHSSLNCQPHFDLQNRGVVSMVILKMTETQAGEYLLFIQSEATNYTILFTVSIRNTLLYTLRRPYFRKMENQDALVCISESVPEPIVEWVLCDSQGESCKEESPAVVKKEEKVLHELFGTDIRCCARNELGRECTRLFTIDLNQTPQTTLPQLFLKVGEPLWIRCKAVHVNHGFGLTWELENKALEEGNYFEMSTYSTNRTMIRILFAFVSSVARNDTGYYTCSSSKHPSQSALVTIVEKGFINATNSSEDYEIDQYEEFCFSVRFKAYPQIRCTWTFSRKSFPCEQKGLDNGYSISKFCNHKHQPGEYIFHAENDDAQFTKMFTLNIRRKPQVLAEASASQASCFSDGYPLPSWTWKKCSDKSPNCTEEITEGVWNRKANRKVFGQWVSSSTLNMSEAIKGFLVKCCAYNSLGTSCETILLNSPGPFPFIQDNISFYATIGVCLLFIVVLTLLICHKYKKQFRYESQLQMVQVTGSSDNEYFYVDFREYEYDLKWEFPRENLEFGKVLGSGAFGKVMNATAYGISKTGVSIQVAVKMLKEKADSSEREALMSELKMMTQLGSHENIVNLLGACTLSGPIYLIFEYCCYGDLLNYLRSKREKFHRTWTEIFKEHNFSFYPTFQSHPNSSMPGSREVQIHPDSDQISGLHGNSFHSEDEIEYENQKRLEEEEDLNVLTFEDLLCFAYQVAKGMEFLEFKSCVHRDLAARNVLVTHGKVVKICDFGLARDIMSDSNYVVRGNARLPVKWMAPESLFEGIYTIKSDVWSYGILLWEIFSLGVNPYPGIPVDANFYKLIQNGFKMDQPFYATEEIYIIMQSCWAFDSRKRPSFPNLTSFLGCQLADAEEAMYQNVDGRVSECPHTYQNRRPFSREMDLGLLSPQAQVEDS

[14] = molecular target: Receptor-type tyrosine-protein kinase FLT3 (Homo sapiens, UniProt P36888, K663Q); experiment: Binding affinity to human partial length FLT3 K663Q mutant (V592 to Y969 residues) expressed in Escherichia coli after 1 hr by qPCR analysis
MOLM-13 [15] = experiment: Cell cycle arrest in human MOLM13 cells assessed as accumulation at G0/G1 phase at 3 nM after 24 hrs by propidium iodide staining-based flow cytometric analysis (reference value: 44.53%); type: functional
MOLM-13 [16] = experiment: Antitumour activity against human MOLM13 cells xenografted in NOD/SCID mouse assessed as tumour growth inhibition at 1 mg/kg, po qd for 10 days measured every two days during compound dosing by caliper method relative to control; type: functional; details: MOLM-13, po, read-out: TGI
MOLM-13 [17] = experiment: Cell cycle arrest in human MOLM13 cells assessed as accumulation at G2/M phase at 30 nM after 24 hrs by propidium iodide staining-based flow cytometric analysis (reference value: 13.52%); type: functional
MOLM-13 [18] = experiment: Cell cycle arrest in human MOLM13 cells assessed as accumulation at G0/G1 phase at 1 nM after 24 hrs by propidium iodide staining-based flow cytometric analysis (reference value: 44.53%); type: functional
[19] = Toxicity in NOD/SCID mouse xenografted with human MV4-11 cells at 1 to 3 mg/kg, po qd for 14 days; type: organism-based; details: in vivo, 336 h
MV4-11 [20] = experiment: Cell cycle arrest in human MV4-11 cells assessed as accumulation at G0/G1 phase at 1 nM after 24 hrs by propidium iodide staining-based flow cytometric analysis (reference value: 48.76%); type: functional
MV4-11 [21] = experiment: Induction of apoptosis in human MV4-11 cells assessed as necrotic cells at 1 uM after 48 hrs by Annexin V/propidium iodide staining based flow cytometry (reference value: 0.06%); type: functional
MOLM-13 [22] = experiment: Cell cycle arrest in human MOLM13 cells assessed as accumulation at G0/G1 phase at 30 nM after 24 hrs by propidium iodide staining-based flow cytometric analysis (reference value: 44.53%); type: functional
MOLM-13 [23] = experiment: Induction of apoptosis in human MOLM13 cells assessed as early apoptotic cells at 10 nM after 48 hrs by Annexin V/propidium iodide staining based flow cytometry (reference value: 5.97%); type: functional

C=CCn1cc(-c2ccc(NC(=O)Nc3cc(C(C)(C)C)on3)cc2)c2c(N)ncnc21
inhibition in vivo at 3 mg/kg (MOLM-13 [1]): 94.5% | Activity (MOLM-13 [2]): 0.76% | fold change (FC) [3]: 0 | Activity (MOLM-13 [4]): 0.12% | Activity (MOLM-13 [5]): 11% | Activity (MOLM-13 [6]): 11.83% | Activity (MV4-11 [7]): 2.2% | Activity (MOLM-13 [8]): 98.5% | Activity (MOLM-13 [9]): 94.62% | TGI (MV4-11 [10]): Dose-dependent effect | Kd [11]: 5.14 nM | inhibition in vivo at 10 mg/kg (MOLM-13 [12]): 96% | Kd [13]: 4.37 nM | Kd [14]: 2.48 nM | Activity (MOLM-13 [15]): 83.62% | inhibition in vivo at 1 mg/kg (MOLM-13 [16]): 77.9% | Activity (MOLM-13 [17]): 2.47% | Activity (MOLM-13 [18]): 53.77% | Activity [19]: Non-Toxic | Activity (MV4-11 [20]): 50.94% | Activity (MV4-11 [21]): 0.32% | Activity (MOLM-13 [22]): 94.68% | Activity (MOLM-13 [23]): 15.5%
